This passage reports GI50 and TGI results from PubChem BioAssay (NCI).

What all share (assay): NCI-60 cell line screen, 48 h
The test system of assay [1] is ACHN renal.
Assay [2] has as its system HL-60(TB) leukemia.
Assay [3] relates to CCRF-CEM leukemia.
The test system of assay [4] is MDA-MB-231 breast.
The subject of assay [5] is SNB-19 CNS.
Assay [6] relates to M14 melanoma.
The subject of assay [7] is KM12 colon.
Assay [8] relates to MOLT-4 leukemia.
Assay [9] relates to BT-549 breast.
Assay [10] concerns SK-MEL-5 melanoma.

Several values for one entry are separate records, joined by “and”; a condition that tells them apart may be missing. Equal entries are not always repeated.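 Cultured in 96-well plates, cells were exposed to test compound for 48 hours across five concentrations. GI50 marks 50% less growth. TGI marks complete inhibition of growth.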 A value given as a limit tells only on which side of the number the result lay.

Turning to `CC(C)NC[C@@H](C(=O)N1CCN(c2ncnc3c2[C@H](C)C[C@H]3O)CC1)c1ccc(Cl)cc1`, the GI50 in assay [1] was > 10 µM and 22.8 µM; in [2], > 10 µM and 39.4 µM; in assay [3], 1.57 µM and 1.24 µM; in assay [4] it was more than 69 µM; in [5], 1.64 µM and 1.38 µM; in assay [6] it was more than 61.5 µM. Also, the GI50 is 0.891 µM and 1.43 µM in assay [7]; 0.676 µM and 0.747 µM in assay [8]; 0.752 µM and 1.59 µM in assay [9]; > 10 µM and 27.8 µM in [10]. In addition, the TGI in [1] was more than 100 µM; in [2], more than 100 µM; in assay [3], more than 100 µM; in [4], more than 100 µM; in [5] it was more than 89.5 µM; in assay [6] it was more than 100 µM. Further, the TGI in assay [7] is more than 91.9 µM; in [8], > 10 µM and 73.9 µM; in assay [9] it was > 10 µM and 56.2 µM; in [10] it was more than 100 µM.
Turning to `Cc1c(C(=O)/C=C/c2csc3ccccc23)[n+](=O)c2ccccc2n1[O-]`, the GI50 in assay [1] is 1.48 µM; in assay [2] it was 1.78 µM; in assay [3], 2.42 µM; in [4], 1.94 µM; in assay [5], 2.08 µM; in assay [6], 1.57 µM. The GI50 in assay [7] was 1.56 µM; in assay [8], 2.71 µM; in [9], 1.61 µM; in assay [10] it was 1.59 µM. Further, the TGI came to 2.8 µM in assay [1]; 5.19 µM in [2]; 7.56 µM in [3]; 4.81 µM in assay [4]; 4.77 µM in [5]; 3.21 µM in assay [6]. Further, the TGI came out at 2.9 µM in assay [7], 7 µM in assay [8], 3.88 µM in [9] and 2.94 µM in assay [10].
Consider `C[C@H](Nc1ncnc2nc[nH]c12)c1cc2cccc(Cl)c2c(=O)n1-c1ccccc1`, for which the GI50 was 5 µM in [1]; 3.37 µM in [2]; 3 µM in assay [3]; 46.4 µM in [4]; 17.7 µM in assay [5]; 21.1 µM in assay [6]. For the same molecule, the GI50 in assay [7] was 27.1 µM; in [8], 6.53 µM; in [9], 1.57 µM; in assay [10], 25.8 µM. Moreover, the TGI was more than 100 µM in [1]; 99.5 µM in [2]; more than 100 µM in assay [3]; more than 100 µM in [4]; more than 100 µM in assay [5]; more than 100 µM in assay [6]. In addition, the TGI in [7] is more than 100 µM; in assay [8] it was 51.1 µM; in [9], more than 83.1 µM; in assay [10] it was more than 100 µM.
With `O=C(c1ccccc1)C1N=NCC1c1ccc([N+](=O)[O-])cc1` (stereo not given), the TGI in assay [1] was more than 100 µM; in assay [2], 67.3 µM; in assay [3], more than 100 µM; in assay [4], more than 100 µM; in [5], more than 100 µM; in [6] it was more than 100 µM. The TGI was more than 100 µM in assay [7], 72.9 µM in assay [8], 65.8 µM in assay [9] and 59.6 µM in assay [10].
With `COC1(C(=O)N[C@@H](C)c2ccc(-n3cc(F)cn3)nc2)CCC(c2nc(C)cc(Nc3cc(C)[nH]n3)n2)CC1` (stereo not given in full), the GI50 in assay [1] is 1.01 µM; in assay [2], 19.5 µM; in [3], 11 µM; in assay [4], 1.14 µM; in [5], 2.29 µM; in assay [6], 3.03 µM. Further, the GI50 was 0.0676 µM in [7], 3.48 µM in assay [8], 0.627 µM in assay [9] and 3.18 µM in [10]. The TGI is 3.49 µM in assay [1]; 41.8 µM in assay [2]; more than 100 µM in assay [3]; 4.69 µM in assay [4]; 51.4 µM in assay [5]; 17.7 µM in [6]. The TGI in [7] is 18.2 µM; in [8] it was more than 100 µM; in assay [9] it was 6.01 µM; in assay [10], 10.4 µM.
Take `CNC(=O)c1cncc(/C=C/c2ccccc2C)c1`: the GI50 in assay [1], in assay [2], in assay [3], in assay [4], in [5] and in assay [6] was more than 25 µM in each case. In addition, the GI50 in assay [7], in [8], in assay [9] and in [10] was more than 25 µM throughout. For the same molecule, the TGI in assay [1], in [2], in assay [3], in assay [4], in assay [5] and in assay [6] was more than 25 µM throughout. Moreover, the TGI in assay [7], in assay [8], in assay [9] and in [10] was more than 25 µM each time.
In the case of `O=CNc1c(Cl)cc2c(c1Cl)Cc1cc([N+](=O)[O-])ccc1-2`, the GI50 is 7.83 µM in [1]; 3.21 µM in [2]; 0.445 µM in assay [3]; 8.16 µM in assay [4]; 16.5 µM in assay [5]; 2.92 µM in assay [6]. The GI50 in assay [7] was 2.51 µM; in [8] it was 2.13 µM; in assay [9], 16.3 µM; in assay [10], 1.11 µM. Also, the TGI was more than 100 µM in assay [1]; more than 100 µM in assay [2]; more than 100 µM in assay [3]; 47.7 µM in assay [4]; more than 100 µM in assay [5]; more than 54.6 µM in assay [6]. Further, the TGI in [7] is 11.9 µM; in [8], more than 100 µM; in assay [9] it was more than 86.9 µM; in assay [10], more than 100 µM.
With `O=C(Cn1ccc(=O)[nH]c1=O)Nc1ccc(C(=O)O)c(O)c1`, the TGI in assay [1], in [2], in assay [3], in [4], in assay [5] and in assay [6] was more than 100 µM each time. Further, the TGI in assay [7], in assay [8], in [9] and in [10] was more than 100 µM in each case.
